In patent US20120276200A1, “FORMULATIONS OF QUINOLINONES” (priority 2005, published 2012):

Test: Hygroscopicity, DVS experiment (moisture induced weight change)
Assay type: physicochemical
Experimental: All DVS measurements were carried out at 2.5% relative humidity change per hour.

Row | SMILES | Moisture induced % weight change (55% RH, listed as Lactate trial 3) [%] | Water uptake in DVS experiment (RH above 90%, not completely reversible) | Hygroscopicity in DVS experiment (below about 80% RH) | Moisture induced % weight change (55% RH, listed as Malate trial 3) [%] | Moisture induced % weight change (95% RH, listed as Malate trial 3) [%]
1 | CC(O)C(=O)O.CN1CCN(c2ccc3nc(-c4c(N)c5c(F)cccc5[nH]c4=O)[nH]c3c2)CC1 [Lactate trial 1, Lactic Acid salt of 4-Amino-5-fluoro-3-[6-(4-methyl-piperazin-1-yl)-1H-benzimidazol-2-yl]-1H-quinolin-2-one] | 0.08 | significant water uptake | not hygroscopic |  | 
2 | CN1CCN(c2ccc3nc(-c4c(N)c5c(F)cccc5[nH]c4=O)[nH]c3c2)CC1.O=C(O)CC(O)C(=O)O [Malate trial 1] |  |  |  | 0.08 | 0.30
